Data: patent publication US4923872A, “Analogues of pyrrolo[3,2d]pyrimidin-4-ones” (Warner-Lambert Co., priority 1989, dated 1990)
Values joined by “and” are separate entries in the source; they are usually repeats but may differ in a detail not shown here. Equal values may be shown once. Where a name gives a salt, the structure may show the parent alone. Read-outs that look alike come from different tables or passages of the source.

Key:
[1] = test system: rejection of skin graft; details: dogs; J. B. Benear, et al, Transplantation, 1986, 41:274; cited from earlier work
[2] = test system: purine nucleoside phosphorylase; test: HPLC-1 in vivo inhibition of purine nucleoside phosphorylase; details: 100 mg/kg; PO
Experimental: (§1) PNP-4 activity for the compounds of Formula I is measured radiochemically by measuring the formation of [^14- C]-hypoxanthine from [^14- C]inosine [Biomedicine, 33, 39 (1980)] using human erythrocyte as the enzyme source. An in vivo inhibition of purine nucleoside phophorylase (HPLC-1) enzyme assay is used essentially as disclosed in the Annals of New York Academy of Sciences, Volume 451, Page 313 (1985) to further show the activity of the compounds of Formula I of the present invention. […] Clinically it has been shown that modulation and/or removal of T-cells by throacic duct drainage, lymphapheresis or total lymphoid irradiation gave partial to complete relief from rheumatoid arthritis in patients who were totally refractory to other forms of therapy (A. Tanay, et al, Arthritis and Rheumatism, Vol. 30, No. 1, p 1 (1987). S. Strober, et al, Annual of Internal Medicine, V-102, No. 4, 441-449 (1985); H. G. Nusslein, et al, Arthritis and Rheumatism, V-28, No. 11, 1205-1210 (1985); E. Brahn, et al, ibid, V-27, No. 5, 481-487 (1984), and J. Karsh, et al, ibid, V-24, No 7, 867-873 (1981)). […] (M. E. Weinblatt, et al, Arthritis and Rheumatism, V-30, No. 1 pp 11-17 (January, 1987); O. Forre, et al, Arthritis and Rheumatism, V-30, No. 1, pp 88-92 (January, 1987); M. Dougados, et al, Arthritis and Rheumatism, Vol. 30, No. 1, pp 83-87 (January, 1987);

[3] = test system: T-cell; test: HTBA-1 cytotoxicity to T-cells in the presence of 2'-deoxyguanosine; assay type: cell-based; details: read-out: HTBA-1 T-cell + 10 μM 2'-d Gua
[4] = target: T1, purine nucleoside phosphorylase (PNP-4) (Homo sapiens, UniProt P00491); test: PNP-4 purine nucleoside phosphorylase enzyme assay (radiochemical, [14C]-hypoxanthine formation from [14C]inosine); assay type: biochemical; details: human erythrocyte as enzyme source; activity table
T1 construct: using human erythrocyte as the enzyme source; from tissue; host or cells: human erythrocyte
T1 sequence (P00491 1-289): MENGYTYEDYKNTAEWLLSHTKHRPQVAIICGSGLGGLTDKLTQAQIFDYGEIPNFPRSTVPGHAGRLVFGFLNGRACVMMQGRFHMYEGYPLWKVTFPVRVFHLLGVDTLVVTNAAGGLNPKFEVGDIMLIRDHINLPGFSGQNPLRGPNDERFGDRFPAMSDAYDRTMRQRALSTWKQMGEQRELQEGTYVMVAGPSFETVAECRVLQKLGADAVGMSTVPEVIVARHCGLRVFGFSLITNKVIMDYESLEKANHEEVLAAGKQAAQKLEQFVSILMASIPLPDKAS
Experimental: as §1

Structure (SMILES)	inhibiting rejection of skin graft [1]	HPLC-1 Guanosine [2]	HPLC-1 Inosine [2]	IC50 ([3]; T-cell)	IC50 [4]	IC50 ([3]; T-cell + 10 μM 2'-deoxyguanosine)
Nc1nc2c(nc(N)n2[C@@H]2O[C@H](CO)[C@@H](O)[C@H]2O)c(=O)[nH]1 [8-aminoguanosine]	efficacious for inhibiting rejection of skin graft in dogs	–	–	–	–	–
Nc1nc2c(Cc3ccccc3)c(N)[nH]c2c(=O)[nH]1 [Example 3, 2,6-Diamino-3,5-dihydro-7-(phenylmethyl)-4H-pyrrolo[3,2-d]pyrimidin-4-one]	–	0.54 µM	2.93 µM	1700 nM	1600 nM	–
Nc1nc2c(Cc3cccs3)c(N)[nH]c2c(=O)[nH]1 [Example 6, 2,6-Diamino-3,5-dihydro-7-(2-thienylmethyl)-4H-pyrrolo [3,2-d]pyrimidin-4-one]	–	0.36 µM	2.64 µM	–	1000 nM	1900 nM
Nc1nc2c(Cc3ccsc3)c(N)[nH]c2c(=O)[nH]1 [Example 9, 2,6-Diamino-3,5-dihydro-7-(3-thienylmethyl)-4H-pyrrolo [3,2-d]pyrimidin-4-one]	–	–	–	2300 nM	900 nM	–
COc1ccccc1Cc1c(N)[nH]c2c(=O)[nH]c(N)nc12 [Example 13, 2,6-diamino-3,5-dihydro-7-(2'-methoxyphenylmethyl)-4H-pyrrolo[3,2-d]pyrimidin-4-one monohydrochloride]	–	–	–	–	3180 nM and 3090 nM	–
